PMC7567334 (Environmental Health Perspectives, 2020)
Where “and” joins values, the source holds several entries; their conditions need not be identical. Equal values may be shown once.

Key:
TRα and TRβ = assay: GH3.TRE-Luc TR reporter assay, antagonist setup (0.25 nM T3); format: cell-based, rat; conditions: GH3.TRE-Luc
firefly luciferase = target: T1, firefly luciferase (Photinus pyralis, UniProt P08659); assay: Luciferase inhibition assay in GH3.TRE-Luc cell lysates; format: biochemical; conditions: cell lysate, read-out: inhibition of firefly luciferase luminescence signal
T1 construct: Only implied by 'CP' in the vector name, from my own knowledge; expressed in transfected cells; host or cells: GH3.TRE-Luc cells induced with 0.25 nM T3, lysate
T1 sequence (P08659 whole entry): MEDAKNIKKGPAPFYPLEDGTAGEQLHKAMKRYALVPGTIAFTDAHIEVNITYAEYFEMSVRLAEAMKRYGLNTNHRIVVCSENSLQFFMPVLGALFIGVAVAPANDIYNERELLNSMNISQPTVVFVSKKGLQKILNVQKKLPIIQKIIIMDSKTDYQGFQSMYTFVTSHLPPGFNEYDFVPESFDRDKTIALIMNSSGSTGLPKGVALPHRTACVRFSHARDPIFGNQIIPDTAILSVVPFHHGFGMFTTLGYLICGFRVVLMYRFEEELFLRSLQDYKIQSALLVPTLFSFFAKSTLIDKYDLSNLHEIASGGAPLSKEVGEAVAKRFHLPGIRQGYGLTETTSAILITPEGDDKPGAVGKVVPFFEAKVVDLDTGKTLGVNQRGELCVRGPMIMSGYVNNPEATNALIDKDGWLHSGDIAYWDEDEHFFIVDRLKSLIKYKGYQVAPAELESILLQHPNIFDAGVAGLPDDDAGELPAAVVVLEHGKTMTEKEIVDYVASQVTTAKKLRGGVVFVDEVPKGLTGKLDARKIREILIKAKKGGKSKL
Procedure: Serial dilutions for each treatment were prepared in the cell lysate and incubated at room temperature for 30 min.

Estrogen receptor-α = conditions: YES/YAS tests; ref Westlund and Yargeau 2017; cited from earlier work
human (h) ERα = target: T2, human (h) ERα (Homo sapiens, UniProt P03372); assay: hERα-HeLa-9903 transactivation assay, agonist setup; format: cell-based; design: host or cells: hERα-HeLa-9903 (HeLa derived); conditions: for higher ERα RTA than vehicle control: vs 0.1% DMSO
T2 sequence (P03372 1-595): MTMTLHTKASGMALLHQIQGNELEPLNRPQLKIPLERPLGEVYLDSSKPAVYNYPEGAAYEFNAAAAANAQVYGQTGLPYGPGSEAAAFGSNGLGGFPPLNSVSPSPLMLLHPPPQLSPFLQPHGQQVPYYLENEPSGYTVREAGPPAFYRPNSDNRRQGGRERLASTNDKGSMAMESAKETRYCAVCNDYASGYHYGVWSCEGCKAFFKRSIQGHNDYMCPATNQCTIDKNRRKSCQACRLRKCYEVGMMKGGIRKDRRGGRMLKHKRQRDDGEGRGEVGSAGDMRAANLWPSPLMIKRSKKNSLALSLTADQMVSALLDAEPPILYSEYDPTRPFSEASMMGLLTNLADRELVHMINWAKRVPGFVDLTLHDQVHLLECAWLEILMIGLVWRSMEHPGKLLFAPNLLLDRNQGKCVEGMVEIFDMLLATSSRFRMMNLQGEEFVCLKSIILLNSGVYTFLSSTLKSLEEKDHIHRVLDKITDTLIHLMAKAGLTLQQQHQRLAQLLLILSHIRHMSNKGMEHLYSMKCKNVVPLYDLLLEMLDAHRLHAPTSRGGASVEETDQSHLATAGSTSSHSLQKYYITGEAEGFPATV

With `CC(C)(C)C(=O)C(Oc1ccc(Cl)cc1)n1ccnc1` (centres unmarked) [Climbazole, 1-(4-Chlorophenoxy)-1-(imidazol-1-yl)-3,3-dimethylbutan-2-one] the “TR antagonist activity, call” value (TRα and TRβ) was “Antagonist”, the “concentration with TR antagonist activity” value (TRα and TRβ) was 10 µM and the inhibition at 50 µM (firefly luciferase) was roughly 12%. The “effect on ER, yeast based assay” value (Estrogen receptor-α) was “No effect ([Westlund and Yargeau 2017])”, the “higher ERα RTA than vehicle control” value (human (h) ERα; 10 μM) was > 30.0% and 36.6% and the “higher ERα RTA than vehicle control” value (human (h) ERα; 100 μM) was 94%. The “ERα agonist activity, call” value (human (h) ERα; hERα-HeLa-9903) was “Agonist” and the “concentration with ERα agonist activity” value (human (h) ERα; hERα-HeLa-9903) was 10 to 100 µM.
